Measurements as given in PubChem BioAssay AID2060899 (Molecular Pharmacology Branch, DTP, NCI, 2025).

Test system: 565726-208-R1-J5-PDC complex spheroids, growth inhibition
Assay: Anticancer human tumor 565726-208-R1-J5-PDC patient-derived pancreatic adenocarcinoma cell line growth inhibition [RAS]
Settings: for IC50: curve of first compound; for viability, T/C: stronger effect = lower value
Procedure, shortened: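 Multi-cell-type spheroids: tumor cells plus HUVEC endothelial cells and mesenchymal stem cells. RAS-pathway inhibitors were combined with targeted agents, each dosed in half-log steps down from clinical Cmax, or from 10 microM when Cmax was unknown.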

[1] = second compound 0.000949 µM, first compound 0.0316 µM
[2] = second compound 0.000949 µM, first compound 0.1 µM
[3] = second compound 0.000949 µM, first compound 0.316 µM
[4] = second compound 0.000949 µM, first compound 1 µM
[5] = second compound 0.000949 µM, first compound 3.16 µM
[6] = second compound 0.000949 µM, first compound 10 µM
[7] = second compound 0.003 µM, first compound 0.0316 µM
[8] = second compound 0.003 µM, first compound 0.1 µM
[9] = second compound 0.003 µM, first compound 0.316 µM
[10] = second compound 0.003 µM, first compound 1 µM
[11] = second compound 0.003 µM, first compound 3.16 µM
[12] = second compound 0.003 µM, first compound 10 µM
[13] = second compound 0.00949 µM, first compound 0.0316 µM
[14] = second compound 0.00949 µM, first compound 0.1 µM
[15] = second compound 0.00949 µM, first compound 0.316 µM
[16] = second compound 0.00949 µM, first compound 1 µM
[17] = second compound 0.00949 µM, first compound 3.16 µM
[18] = second compound 0.00949 µM, first compound 10 µM
[19] = second compound 0.03 µM, first compound 0.0316 µM
[20] = second compound 0.03 µM, first compound 0.1 µM
[21] = second compound 0.03 µM, first compound 0.316 µM
[22] = second compound 0.03 µM, first compound 1 µM
[23] = second compound 0.03 µM, first compound 3.16 µM
[24] = second compound 0.03 µM, first compound 10 µM
[25] = second compound 0.0949 µM, first compound 0.0316 µM
[26] = second compound 0.0949 µM, first compound 0.1 µM
[27] = second compound 0.0949 µM, first compound 0.316 µM
[28] = second compound 0.0949 µM, first compound 1 µM
[29] = second compound 0.0949 µM, first compound 3.16 µM
[30] = second compound 0.0949 µM, first compound 10 µM
[31] = second compound 0.3 µM, first compound 0.0316 µM
[32] = second compound 0.3 µM, first compound 0.1 µM
[33] = second compound 0.3 µM, first compound 0.316 µM
[34] = second compound 0.3 µM, first compound 1 µM
[35] = second compound 0.3 µM, first compound 3.16 µM
[36] = second compound 0.3 µM, first compound 10 µM
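Further: spheroids exposed to compounds for seven days before readout.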
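Wherever viability, T/C is given: 100% = DMSO vehicle control viability.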

## Cc1nc(N2CCC3(CC2)COC(C)C3N)c(CO)nc1Sc1ccnc(N)c1Cl (stereo unspecified) + CCn1c(-c2cc(N3CCN(C)CC3)cnc2C(C)OC)c2c3cc(ccc31)-c1csc(n1)CC(NC(=O)C1CC1C)C(=O)N1CCCC(N1)C(=O)OCC(C)(C)C2
Second compound 0.000949 µM
  IC50: 204 nM
Second compound 0.003 µM
  IC50: 38.7 nM
Second compound 0.00949 µM
  IC50: < 31.6 nM
Second compound 0.03 µM
  IC50: < 31.6 nM
Second compound 0.0949 µM
  IC50: < 31.6 nM
Second compound 0.3 µM
  IC50: < 31.6 nM
[1]
  viability, T/C: 63.1%
[2]
  viability, T/C: 53.6%
[3]
  viability, T/C: 48.3%
[4]
  viability, T/C: 39.5%
[5]
  viability, T/C: 33%
[6]
  viability, T/C: 28%
[7]
  viability, T/C: 51.3%
[8]
  viability, T/C: 43.4%
[9]
  viability, T/C: 34.3%
[10]
  viability, T/C: 27.6%
[11]
  viability, T/C: 29.1%
[12]
  viability, T/C: 22%
[13]
  viability, T/C: 40.5%
[14]
  viability, T/C: 34.8%
[15]
  viability, T/C: 26.1%
[16]
  viability, T/C: 22.2%
[17]
  viability, T/C: 20.9%
[18]
  viability, T/C: 17.1%
[19]
  viability, T/C: 29.1%
[20]
  viability, T/C: 28.4%
[21]
  viability, T/C: 22.2%
[22]
  viability, T/C: 18%
[23]
  viability, T/C: 19.8%
[24]
  viability, T/C: 16.9%
[25]
  viability, T/C: 22.9%
[26]
  viability, T/C: 21.2%
[27]
  viability, T/C: 20.1%
[28]
  viability, T/C: 15.9%
[29]
  viability, T/C: 18.3%
[30]
  viability, T/C: 17.2%
[31]
  viability, T/C: 24.4%
[32]
  viability, T/C: 20%
[33]
  viability, T/C: 17%
[34]
  viability, T/C: 13.8%
[35]
  viability, T/C: 16.2%
[36]
  viability, T/C: 15.5%

## CC(C)n1nc(-c2ccc3oc(N)nc3c2)c2c(N)ncnc21 + CCn1c(-c2cccnc2C(C)OC)c2c3cc(ccc31)N1CCOC(CC(NC(=O)C(C(C)C)N(C)C(=O)C3(F)CCN(C(=O)C#CC(C)(C)N(C)C)CC3)C(=O)N3CCCC(N3)C(=O)OCC(C)(C)C2)C1
Second compound 0.000949 µM
  IC50: 19.2 nM
Second compound 0.003 µM
  IC50: 26.8 nM
Second compound 0.00949 µM
  IC50: 24.5 nM
Second compound 0.03 µM
  IC50: 23.1 nM
Second compound 0.0949 µM
  IC50: 18.8 nM
Second compound 0.3 µM
  IC50: 13 nM
Second compound 0.000949 µM, first compound 0.000316 µM
  viability, T/C: 95.6%
Second compound 0.000949 µM, first compound 0.001 µM
  viability, T/C: 91.2%
Second compound 0.000949 µM, first compound 0.00316 µM
  viability, T/C: 91.5%
Second compound 0.000949 µM, first compound 0.01 µM
  viability, T/C: 59.8%
[1]
  viability, T/C: 43.4%
[2]
  viability, T/C: 27.5%
Second compound 0.003 µM, first compound 0.000316 µM
  viability, T/C: 101%
Second compound 0.003 µM, first compound 0.001 µM
  viability, T/C: 90.5%
Second compound 0.003 µM, first compound 0.00316 µM
  viability, T/C: 85.2%
Second compound 0.003 µM, first compound 0.01 µM
  viability, T/C: 67.1%
[7]
  viability, T/C: 46.5%
[8]
  viability, T/C: 28.1%
Second compound 0.00949 µM, first compound 0.000316 µM
  viability, T/C: 103%
Second compound 0.00949 µM, first compound 0.001 µM
  viability, T/C: 93.9%
Second compound 0.00949 µM, first compound 0.00316 µM
  viability, T/C: 86.8%
Second compound 0.00949 µM, first compound 0.01 µM
  viability, T/C: 69.8%
[13]
  viability, T/C: 43.2%
[14]
  viability, T/C: 26.9%
Second compound 0.03 µM, first compound 0.000316 µM
  viability, T/C: 83.2%
Second compound 0.03 µM, first compound 0.001 µM
  viability, T/C: 91%
Second compound 0.03 µM, first compound 0.00316 µM
  viability, T/C: 79%
Second compound 0.03 µM, first compound 0.01 µM
  viability, T/C: 68.8%
[19]
  viability, T/C: 43%
[20]
  viability, T/C: 26.7%
Second compound 0.0949 µM, first compound 0.000316 µM
  viability, T/C: 93%
Second compound 0.0949 µM, first compound 0.001 µM
  viability, T/C: 92.1%
Second compound 0.0949 µM, first compound 0.00316 µM
  viability, T/C: 82.5%
Second compound 0.0949 µM, first compound 0.01 µM
  viability, T/C: 62.1%
[25]
  viability, T/C: 40.2%
[26]
  viability, T/C: 25.1%
Second compound 0.3 µM, first compound 0.000316 µM
  viability, T/C: 89.3%
Second compound 0.3 µM, first compound 0.001 µM
  viability, T/C: 85.1%
Second compound 0.3 µM, first compound 0.00316 µM
  viability, T/C: 75.2%
Second compound 0.3 µM, first compound 0.01 µM
  viability, T/C: 54.8%
[31]
  viability, T/C: 33.8%
[32]
  viability, T/C: 24%

## CC(Nc1ccc2c(c1)OCCn1cc(N3C(=O)OCC3C(F)F)nc1-2)C(N)=O (stereo unspecified) + CCn1c(-c2cccnc2C(C)OC)c2c3cc(ccc31)N1CCOC(CC(NC(=O)C(C(C)C)N(C)C(=O)C3(F)CCN(C(=O)C#CC(C)(C)N(C)C)CC3)C(=O)N3CCCC(N3)C(=O)OCC(C)(C)C2)C1
Second compound 0.000949 µM
  IC50: > 10000 nM
Second compound 0.003 µM
  IC50: > 10000 nM
Second compound 0.00949 µM
  IC50: 8980 nM
Second compound 0.03 µM
  IC50: 8760 nM
Second compound 0.0949 µM
  IC50: 7050 nM
Second compound 0.3 µM
  IC50: 2390 nM
[1]
  viability, T/C: 87.5%
[2]
  viability, T/C: 80.8%
[3]
  viability, T/C: 77.3%
[4]
  viability, T/C: 72.8%
[5]
  viability, T/C: 64.8%
[6]
  viability, T/C: 50.7%
[7]
  viability, T/C: 93.7%
[8]
  viability, T/C: 88.4%
[9]
  viability, T/C: 75%
[10]
  viability, T/C: 75.9%
[11]
  viability, T/C: 62.9%
[12]
  viability, T/C: 52.9%
[13]
  viability, T/C: 92.3%
[14]
  viability, T/C: 91.2%
[15]
  viability, T/C: 77.8%
[16]
  viability, T/C: 77.6%
[17]
  viability, T/C: 63.7%
[18]
  viability, T/C: 47.7%
[19]
  viability, T/C: 93%
[20]
  viability, T/C: 85.6%
[21]
  viability, T/C: 80.4%
[22]
  viability, T/C: 71.1%
[23]
  viability, T/C: 55.2%
[24]
  viability, T/C: 49.9%
[25]
  viability, T/C: 88.8%
[26]
  viability, T/C: 82.4%
[27]
  viability, T/C: 84.4%
[28]
  viability, T/C: 65.9%
[29]
  viability, T/C: 63%
[30]
  viability, T/C: 44.8%
[31]
  viability, T/C: 80%
[32]
  viability, T/C: 72.8%
[33]
  viability, T/C: 72%
[34]
  viability, T/C: 63.7%
[35]
  viability, T/C: 44.9%
[36]
  viability, T/C: 38.2%
